Results published in PubChem BioAssay AID602211 (Sanford-Burnham Center for Chemical Genomics, 2012).
The source made the active and inactive calls.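 Rule for the calls: active = mean IC50 at or below 10 µM; inactive = the rest.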

These molecules were tested on H9c2 cardiomyocytes, H2O2 protection, ATPLite viability, 2 h (assay: H2O2-induced H9c2 cell death suppression – ATPLite luminescence, set 2, dose response (AID 602211);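 note: potency is for protection so actives keep ATP signal up against peroxide killing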).
`COc1ccc(-c2cc(C(=O)Nc3ccccc3N3CCOCC3)c3ccccc3n2)cc1OC` was tested, and the IC50 was 4.52 µM.
`Cc1ccccc1C(C(=O)NCc1ccccc1)N(Cc1ccco1)C(=O)c1ccccn1` (configuration not stated) was tested, and the IC50 was > 79 µM (inactive).
With `Cc1ccc(-n2cc(-c3ccccc3)c3c(N4CCOCC4)ncnc32)cc1` the IC50 was 5.98 µM.
With `CS(=O)(=O)c1ccc(-c2cnc3c(NC=O)cc(-c4ccsc4)cn23)cc1` the IC50 was 12.5 µM (inactive).
Molecule `CNC(=O)c1ccc(-c2sc3nc(N4CCOCC4)c4c(c3c2N)CC(C)(C)OC4)o1` has an IC50 of 6.13 µM.
For `O=C(c1cc(-c2cccnc2)nc2ccc(Br)cc12)N1CCN(c2ncccn2)CC1`, the IC50 was 3.6 µM.
`O=C(/C=C\c1cn(-c2ccccc2)nc1-c1ccc2c(c1)OCCO2)N1CCOCC1` showed an IC50 of 7.49 µM.
`Cc1cc(NC(=O)c2cccs2)cc(-c2nc3ncccc3o2)c1O` showed an IC50 of 3.76 µM.
In the case of `CCOC(=O)C(Cc1ccc(NC(=O)/C(=C/c2ccc(OC(C)=O)cc2)NC(C)=O)cc1)N1C(=O)c2ccccc2C1=O` (configuration not stated), the IC50 is reported as 2.78 µM.
In the case of `CC(C)(C)OC(=O)NCc1ccc(NC(=O)c2nc[nH]c2C(=O)NCCCCCCNC(=O)c2[nH]cnc2C(=O)Nc2ccc(CNC(=O)OC(C)(C)C)cc2)cc1`, the IC50 is reported as > 79 µM (inactive).
With `COc1ccc(NC(=O)c2cc3c(=O)n(C)c4ccccc4c3n2C)cc1OC` the IC50 was 3.23 µM.
`O=C(CSc1ccc2nnc(-c3ccc(F)cc3)n2n1)N1CCCc2ccccc21` showed an IC50 of 1.21 µM.
With `CC(C)(C)OC(=O)N1CCC[C@H]1c1nnc(SCC(=O)Nc2ccc(Br)cc2)o1` the IC50 was 5.87 µM.
With `CCOC(=O)c1ccc(-c2ccc(/C=C(\C#N)C(=O)NCC3CCCO3)o2)cc1` (configuration not stated) the IC50 was > 79 µM (inactive).
In the case of `Brc1cc2c(cc1/C=N/Nc1nc(N3CCCC3)nc(N3CCOCC3)n1)OCO2`, the IC50 is reported as 8.27 µM.
Molecule `CC(=O)c1cccc(NC(=O)Nc2ccc3c(c2)N(C)C(=O)CS3)c1` has an IC50 of 3.53 µM.
`CCOC(=O)C1CCN(C(=O)c2ccc3c(=O)n4nc(Nc5ccccc5OC)sc4nc3c2)CC1` showed an IC50 of 6.31 µM.
With `Brc1ccc(-c2ccc(/C=N/Nc3nc(N4CCOCC4)nc(N4CCOCC4)n3)o2)cc1` the IC50 was 3.61 µM.
Molecule `Cn1c(=O)c2[nH]c(NN=Cc3cccc(Br)c3)nc2n(C)c1=O` has an IC50 of 4.39 µM.
With `Cc1cccc(NC(=O)c2nc[nH]c2C(=O)NCCCCCCNC(=O)c2[nH]cnc2C(=O)Nc2cccc(C)c2)c1` the IC50 was > 79 µM (inactive).
Work on `COc1cc(/C=N/NC(=O)c2ccccc2)ccc1OS(=O)(=O)c1ccccc1` yielded an IC50 of 6.29 µM.
`Clc1ccccc1-c1nc(N/N=C/c2cccnc2)c2ccccc2n1` showed an IC50 of 7.3 µM.
Work on `Nc1c(C(=O)NC2CC2)c2nc3ccccc3nc2n1-c1ccc2c(c1)OCO2` yielded an IC50 of 4.49 µM.
Molecule `CC(=O)c1ccc(N2CCN(C(=O)c3cc(-c4cccnc4)nc4ccc(Br)cc34)CC2)cc1` has an IC50 of 3.78 µM.
`CCn1c(O)c(/C=N/N=C/c2ccccc2)c2ccc(C3=NNC(=O)CC3)cc21` was tested, and the IC50 was 4.56 µM.
Work on `COc1cccc(C(=O)Nc2c(C(N)=O)oc3ccccc23)c1` yielded an IC50 of 8.36 µM.
With `Cc1cc(N)n(-c2nc(-c3cccnc3)nc3ccccc23)n1` the IC50 was 16.2 µM (inactive).
For `CC(=O)Nc1cc(-c2ccc(C(=O)N3CCOCC3)cc2)cn2c(-c3ccc(C(C)=O)cc3)cnc12`, the IC50 was > 79 µM (inactive).
In the case of `Cn1c(=O)c2[nH]c(NN=Cc3ccc(Br)cc3)nc2n(C)c1=O`, the IC50 is reported as 5.14 µM.
Work on `COc1ccc(OC)c(NC(=O)COC(=O)c2c3c(nc4ccccc24)CCCC3)c1` yielded an IC50 of 1.15 µM.
With `COc1ccc2c(c1OC)C(=O)N1c3ccccc3C(=O)N(c3ccccc3)C21` (configuration not stated) the IC50 was 6.9 µM.
`COc1ccc(/C=N/NC(=O)c2ccc(COc3cccc4cccnc34)cc2)cc1OC` gave an IC50 of 3.89 µM.
In the case of `COc1ccc2occ(C(=O)c3coc4ccc(O)c(CN(C)C)c34)c2c1`, the IC50 is reported as 4.32 µM.
With `O=C(CSc1nnc(-c2ccccc2)n1Cc1ccccc1)NNC(=O)c1ccccc1O` the IC50 was 4.2 µM.
With `CC(=O)Nc1ccc(S(=O)(=O)N(Cc2ccco2)Cc2cc3ccccc3[nH]c2=O)cc1` the IC50 was > 79 µM (inactive).
`COc1cc(-c2cc(C(=O)OCC(=O)NC3CC3)c3ccccc3n2)cc(OC)c1OC` gave an IC50 of 3.98 µM.
Molecule `O=C(Nc1ccccc1)c1nc[nH]c1C(=O)NCCCCNC(=O)c1[nH]cnc1C(=O)Nc1ccccc1` has an IC50 of 2.04 µM.
For `CCn1c(SCC(=O)Nc2ccccc2N2CCCCC2)nc2c1c(=O)n(C)c(=O)n2C`, the IC50 was > 79 µM (inactive).
Molecule `CCOC(=O)C1CCN(c2cc3c(cc2NC(=O)c2ccccc2)n(C)c(=O)n3C)CC1` has an IC50 of 5.18 µM.
With `COc1ccc(-c2cnc3c(NC=O)cc(-c4cccc(NS(C)(=O)=O)c4)cn23)cc1OC` the IC50 was 5.59 µM.
For `COc1ccc2c(c1OC)c(=O)n1c3ccc(OC(C)C(=O)NCCN4CCOCC4)cc3c3ccnc2c31` (configuration not stated), the IC50 was 13.7 µM (inactive).
With `Cc1nc(SCC(=O)N2CCN(c3ccccc3)CC2)c2oc3ccccc3c2n1` the IC50 was 3.43 µM.
Molecule `O=C(Nc1ccccc1)c1nc[nH]c1C(=O)NCCNC(=O)c1[nH]cnc1C(=O)Nc1ccccc1` has an IC50 of 0.668 µM.
`O=C(Nc1cccc(NC(=O)c2ccc([N+](=O)[O-])o2)c1)c1ccco1` gave an IC50 of 1.58 µM.
`O=C(NC1CCCCC1)C(c1ccc2ncccc2c1)N(Cc1cccs1)C(=O)c1cccs1` (configuration not stated) showed an IC50 of 1.96 µM.
`COc1cc(NC(=O)c2ccc(-c3cn[nH]c3)c3ccoc23)cc(OC)c1OC` was tested, and the IC50 was 3.24 µM.
In the case of `COc1ccc(-c2cc(NC=O)c3ncc(-c4ccc(C(C)=O)cc4)n3c2)cn1`, the IC50 is reported as 4.52 µM.
